Laboratory results: patent US6369092B1, “Method for treating neoplasia by exposure to substituted benzimidazole derivatives” (Cell Pathways, Inc., priority 1998, dated 2002)

## CCCc1nc2ccc(NC(=O)OC(C)(C)C)cc2n1Cc1ccccc1Cl [I, 6-t-Butoxycarbonylamino-1-(2-Chlorobenzyl)-2-n-Propylbenzimidazole]
  melting point: 166 to 168 °C
